Source: ChEMBL document CHEMBL6127103, “Benzoxaborinine, New Chemotype for Carbonic Anhydrase Inhibition: Ex Novo Synthesis, Crystallography, In Silico Studies, and Anti-Melanoma Cell Line Activity” (J Med Chem, 2024)
Calls of active or inactive are those of the source. The rule behind the calls is not given here.

Legend:
[1] = target: T1, Carbonic anhydrase 12 (Homo sapiens, UniProt O43570); test: Inhibition of human carbonic anhydrase XII catalytic domain assessed as inhibition constant incubated for 15 to 360 mins by stopped-flow CO2 hydration assay
T1 sequence (O43570 whole entry, the tested form may be a part): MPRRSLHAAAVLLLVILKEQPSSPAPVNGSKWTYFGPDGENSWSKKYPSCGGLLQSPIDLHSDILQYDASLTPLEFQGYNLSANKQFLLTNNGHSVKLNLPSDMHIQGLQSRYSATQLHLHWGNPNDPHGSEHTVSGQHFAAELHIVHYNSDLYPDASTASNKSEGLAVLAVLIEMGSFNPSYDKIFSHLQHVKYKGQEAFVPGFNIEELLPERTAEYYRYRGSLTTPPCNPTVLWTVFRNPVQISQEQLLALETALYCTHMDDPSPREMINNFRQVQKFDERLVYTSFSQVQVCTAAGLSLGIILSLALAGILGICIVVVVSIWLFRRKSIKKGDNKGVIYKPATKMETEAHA

[2] = target: T2, Carbonic anhydrase 9 (Homo sapiens, UniProt Q16790); test: Inhibition of human carbonic anhydrase IX catalytic domain assessed as inhibition constant incubated for 15 to 360 mins by stopped-flow CO2 hydration assay
[3] = target: T3, Carbonic anhydrase 2 (Homo sapiens, UniProt P00918); test: Inhibition of human carbonic anhydrase II assessed as inhibition constant incubated for 15 mins by stopped-flow carbon dioxide hydration assay
[4] = target: T2, Carbonic anhydrase 9
Description: Inhibition of human carbonic anhydrase IX assessed as inhibition constant incubated for 15 mins by stopped-flow carbon dioxide hydration assay

[5] = target: T1, Carbonic anhydrase 12; test: Inhibition of human carbonic anhydrase XII assessed as inhibition constant incubated for 15 mins by stopped-flow carbon dioxide hydration assay
[6] = target: T4, Carbonic anhydrase 1 (Homo sapiens, UniProt P00915); test: Inhibition of human carbonic anhydrase I assessed as inhibition constant incubated for 15 mins by stopped-flow carbon dioxide hydration assay
T4 sequence (P00915 whole entry): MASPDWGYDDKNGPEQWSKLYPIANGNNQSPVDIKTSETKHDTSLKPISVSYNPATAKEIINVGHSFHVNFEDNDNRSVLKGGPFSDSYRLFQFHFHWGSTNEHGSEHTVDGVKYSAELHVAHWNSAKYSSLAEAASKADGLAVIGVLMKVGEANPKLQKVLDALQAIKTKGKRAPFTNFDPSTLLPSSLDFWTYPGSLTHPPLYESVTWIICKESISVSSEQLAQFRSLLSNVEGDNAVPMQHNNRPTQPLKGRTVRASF

[7] = target: T3, Carbonic anhydrase 2; test: Inhibition of human carbonic anhydrase II assessed as inhibition constant incubated for 15 to 360 mins by stopped-flow CO2 hydration assay
[8] = target: T4, Carbonic anhydrase 1; test: Inhibition of human carbonic anhydrase I assessed as inhibition constant incubated for 15 to 360 mins by stopped-flow CO2 hydration assay
[9] = tested on: A2058; test: Anti-melanoma activity against human A2058 cells assessed as inhibition of cell proliferation at 10 to 300 uM incubated for 72 hrs by MACSQUant analyzer; assay type: functional, cell-based; details: dose 10-300 µM
[10] = tested on: A-375; test: Anti-melanoma activity against human A-375 cells assessed as inhibition of cell proliferation at 10 to 300 uM incubated for 72 hrs by MACSQUant analyzer; assay type: functional, cell-based; details: dose 10-300 µM
[11] = tested on: SK-MEL-2; test: Anti-melanoma activity against human SK-MEL-2 cells assessed as inhibition of cell proliferation at 10 to 300 uM incubated for 72 hrs by MACSQUant analyzer; assay type: functional, cell-based; details: dose 10-300 µM
[12] = tested on: A-375; test: Anti-melanoma activity against human A-375 cells assessed as inhibition of cell proliferation incubated for 72 hrs by MACSQUant analyzer; assay type: functional, cell-based; details: A-375, 72 h
[13] = tested on: SK-MEL-2; test: Anti-melanoma activity against human SK-MEL-2 cells assessed as inhibition of cell proliferation at 200 uM incubated for 72 hrs by MACSQUant analyzer; assay type: functional, cell-based
[14] = tested on: A-375; test: Anti-melanoma activity against human A-375 cells assessed as inhibition of cell proliferation at 200 uM incubated for 72 hrs by MACSQUant analyzer; assay type: functional, cell-based
[15] = tested on: A2058; test: Anti-melanoma activity against human A2058 cells assessed as inhibition of cell proliferation at 200 uM incubated for 72 hrs by MACSQUant analyzer; assay type: functional, cell-based
[16] = tested on: SK-MEL-2; test: Anti-melanoma activity against human SK-MEL-2 cells assessed as inhibition of cell proliferation at 100 uM incubated for 72 hrs by MACSQUant analyzer; assay type: functional, cell-based
[17] = tested on: A-375; test: Anti-melanoma activity against human A-375 cells assessed as inhibition of cell proliferation at 100 uM incubated for 72 hrs by MACSQUant analyzer; assay type: functional, cell-based
[18] = tested on: A2058; test: Anti-melanoma activity against human A2058 cells assessed as inhibition of cell proliferation at 100 uM incubated for 72 hrs by MACSQUant analyzer; assay type: functional, cell-based

Row | Structure (SMILES) | Ki [1] [nM] | Ki [2] [nM] | Ki [3] [nM] | Ki [4] [nM] | Ki [5] [nM] | Ki [6] [nM] | further results
1 | O=C(Nc1ccc(F)cc1)Nc1ccc2c(c1)B(O)OC2 | 175 | 843 | – | – | – | – | –
2 | OB1OCCc2ccc(NC(=S)Nc3ccc(C(F)(F)F)cc3)cc21 | – | – | 44.9 | 349 | 82 | 16800 | –
3 | O=C(NCc1ccccc1)Nc1ccc2c(c1)B(O)OC2 | 184 | 925 | – | – | – | – | –
4 | O=C(Nc1ccccc1)Nc1ccc2c(c1)B(O)OCC2 | – | – | 262 | 268 | 210 | 19000 | –
5 | OB1OCCc2ccc(NC(=S)Nc3ccc(F)cc3)cc21 | – | – | 434 | 88.5 | 151 | 1590 | –
6 | OB1OCCc2ccccc21 [BENZOXABORIN] | – | – | 1950 | 9840 | 754 | 3870 | –
7 | O=[N+]([O-])c1ccc2c(c1)B(O)OCC2 | – | – | 983 | 25 | 920 | 44500 | –
8 | Nc1ccc2c(c1)B(O)OCC2 | – | – | 2920 | 45 | 2310 | > 100000 | –
9 | OB1OCc2ccc(NC(=S)Nc3ccccc3)cc21 | 76 | 436 | – | – | – | – | Ki [7]: 1150 nM; Ki [8]: 548 nM
10 | O=C(Nc1ccccc1)Nc1ccc2c(c1)B(O)OC2 | 240 | 1060 | – | – | – | – | –
11 | O=C(NCc1ccccc1)Nc1ccc2c(c1)B(O)OCC2 | – | – | 112 | 163 | 80.7 | 637 | Activity [9]: Active; Activity [10]: Active; Activity [11]: Active; IC50 [12]: 31600 nM
12 | O=C(Nc1ccc(C(F)(F)F)cc1)Nc1ccc2c(c1)B(O)OC2 | 93 | 845 | – | – | – | – | –
13 | O=C(Nc1ccc(C(F)(F)F)cc1)Nc1ccc2c(c1)B(O)OCC2 | – | – | 306 | 139 | 354 | 20700 | –
14 | NS(=O)(=O)c1ccc(NC(=O)Nc2ccc(F)cc2)cc1 [SLC-0111] | – | – | – | – | – | – | Activity [13]: Active; Activity [14]: Active; Activity [15]: Active; IC50 [12]: 111000 nM
15 | OB1OCc2ccccc21 [BENZOXABOROLE] | > 50000 | > 50000 | – | – | – | – | –
16 | OB1OCc2ccc(NC(=S)Nc3ccc(F)cc3)cc21 | 89 | 336 | – | – | – | – | –
17 | OB1OCc2ccc(NC(=S)NCc3ccccc3)cc21 | 42 | 610 | – | – | – | – | Ki [8]: 380 nM
18 | O=[N+]([O-])c1ccc(NC(=S)Nc2ccc3c(c2)B(O)OCC3)cc1 | – | – | 452 | 63.2 | 46.4 | 523 | –
19 | OB1OCCc2ccc(NC(=S)Nc3ccccc3)cc21 | – | – | 295 | 312 | 191 | 798 | –
20 | OB1OCCc2ccc(NC(=S)NCc3ccccc3)cc21 | – | – | 41.7 | 52.8 | 69 | 614 | Activity [9]: Active; Activity [10]: Active; Activity [11]: Active; IC50 [12]: 126000 nM
21 | O=C(Nc1ccc(F)cc1)Nc1ccc2c(c1)B(O)OCC2 | – | – | 85.9 | 451 | 278 | 3490 | Activity [16]: Active; Activity [17]: Active; IC50 [12]: 132000 nM; Activity [18]: Active
22 | Nc1ccc2c(c1)B(O)OC2 | 640 | 813 | – | – | – | – | –
23 | O=[N+]([O-])c1ccc2c(c1)B(O)OC2 | 92 | 94 | – | – | – | – | –
